Tests used:
5HT2A sensor = format: cell-based
5-HT2A [1] = target: T1, 5-HT2A (Homo sapiens, UniProt P28223); experiment: Serotonin 5-HT2A in vitro cellular IPOne agonism assay; format: cell-based; parameters: host or cells: CHO-K1; conditions: CHO-K1 cells, IPOne HTRF, agonist mode
Method: Serotonin 5-HT2A In Vitro Cellular IPOne Agonism Assay. The 5-HT2A IPOne HTRF assay was performed at Epics Therapeutics S.A. (Belgium, FAST-0505I) using conventional methods. Briefly, CHO-K1 cells expressing human recombinant 5-HT2A receptor grown to mid-log phase in culture media without antibiotics were detached with PBS-EDTA, centrifuged, and resuspended in medium without antibiotics buffer. 20,000 cells are distributed in a 96 well plate and incubated overnight at 37° C. with 5% Co2.
For agonist testing, the medium was removed and […] of assay buffer plus 20 μl of test compound or reference agonist were added in each well. The plate was incubated for 60 min. at 37° C. with 5% CO2.
(§1) After addition of the lysis buffer containing IP1-d2 and anti-IP1 cryptate detection reagents, plates were incubated 1-hour at room temperature, and fluorescence ratios were measured according to the manufacturer specification, with the HTRF kit.

5-HT2A [2] = target: T1, 5-HT2A; experiment: Serotonin 5-HT2A in vitro cellular IPOne antagonism assay; format: cell-based; parameters: host or cells: CHO-K1; conditions: CHO-K1 cells, IPOne HTRF, reference agonist a-Me-5HT
Method: Serotonin 5-HT2A and 5-HT2C In Vitro Cellular IPOne Antagonism Assay. The 5-HT2A and 5-HT2C IPOne HTRF assay was performed at Epics Therapeutics S.A. (Belgium, FAST-0505I) in antagonism mode using conventional methods. Briefly, CHO-K1 cells expressing human recombinant 5-HT2A or 5-HT2C receptor grown to mid-log phase in culture media without antibiotics were detached with PBS-EDTA, centrifuged, and resuspended in medium without antibiotics buffer. 20,000 cells were distributed in a 96 well plate and incubated overnight at 37° C. with 5% C02.
For antagonist testing, a reference agonist a-Me-5HT was added and fluorescence signal monitored for several minutes, followed by addition of 20 μlof assay buffer plus 20 μl of test compound or reference antagonist ketanserin, in each well. The plate was incubated for 60 min. at 37° C. with 5% CO2.
as §1

5-HT2A [3] = target: T1, 5-HT2A; experiment: Serotonin 5-HT2A in vitro radioligand binding competition assay ([3H]-DOI); parameters: purchased Epics Therapeutics S. A. (Belgium) FAST-0505B; conditions: [3H]-DOI competition, membrane extracts
Method: Serotonin 5-HT2A In Vitro Radioligand Binding Competition Assay. The 5-HT2A radioligand binding competition assay was performed at Epics Therapeutics S. A. (Belgium, FAST-0505B) using conventional methods. Briefly, competition binding was performed in duplicate in the wells of a 96 well plate (Master Block, Greiner, 786201) containing binding buffer (optimized for each receptor), membrane extracts (amount of protein/well optimized for each receptor), radiotracer [^3H]-DOI (final concentration optimized for each receptor) and test compound. Nonspecific binding was determined by co-incubation with 200-fold excess of cold competitor. The samples were incubated in a final volume of 0.1 ml at a temperature and for a duration optimized for each receptor and then filtered over filter plates. Filters were washed six times with 0.5 ml of ice-cold washing buffer (optimized for each receptor) and 50 μl of Microscint 20 (Packard) were added in each well. The plates were incubated 15 min on an orbital shaker and then counted with a TopCount™ for 1 min/well.

T1 sequence (P28223 whole entry): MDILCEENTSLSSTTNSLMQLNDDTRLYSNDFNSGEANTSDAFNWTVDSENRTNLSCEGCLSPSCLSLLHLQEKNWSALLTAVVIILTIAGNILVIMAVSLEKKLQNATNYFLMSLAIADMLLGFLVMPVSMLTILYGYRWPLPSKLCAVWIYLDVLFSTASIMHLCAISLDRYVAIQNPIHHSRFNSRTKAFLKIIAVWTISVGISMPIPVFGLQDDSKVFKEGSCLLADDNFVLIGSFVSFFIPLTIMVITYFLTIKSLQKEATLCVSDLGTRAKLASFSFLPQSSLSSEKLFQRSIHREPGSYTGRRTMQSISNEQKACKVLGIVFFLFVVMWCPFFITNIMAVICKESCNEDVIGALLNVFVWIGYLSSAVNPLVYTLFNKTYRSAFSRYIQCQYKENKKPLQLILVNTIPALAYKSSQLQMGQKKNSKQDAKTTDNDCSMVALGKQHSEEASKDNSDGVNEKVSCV

Row | Structure (SMILES) | activation of the 5HT2A sensor assay in agonist mode (5HT2A sensor) | EC50 (5-HT2A [1]) | IC50 (5-HT2A [2]) | IC50 (5-HT2A [3])
1 | COc1cc(CC(C)N)c(OC)cc1I.Cl (racemic) [DOI] | activate the 5HT2A sensor assay in agonist mode |  |  | 
2 | Cc1cn(C2CNC2)c2ccc(F)cc12 [Compound 1, 1-(azetidin-3-yl)-5-fluoro-3-methyl-1H-indole] |  | > 10000 nM | 1000 to 10000 nM | 101 to 1000 nM
3 | Fc1ccc2c(ccn2C2CNC2)c1F [Compound 2, 1-(azetidin-3-yl)-4,5-difluoro-1H-indole] |  | > 10000 nM | 101 to 1000 nM | 101 to 1000 nM
4 | Cc1cn(C2CCNCC2)c2ccc(F)cc12 [Compound 3, 5-fluoro-3-methyl-1-(piperidin-4-yl)-1H-indole] |  | > 10000 nM | 101 to 1000 nM | 101 to 1000 nM
5 | Fc1ccc2c(ccn2C2CCNCC2)c1F [Compound 4, 4,5-difluoro-1-(piperidin-4-yl)-1H-indole] |  | > 10000 nM | 101 to 1000 nM | 101 to 1000 nM
6 | Cc1cn(C2CN(C)C2)c2ccc(F)cc12 [Compound 5, 5-fluoro-3-methyl-1-(1-methylazetidin-3-yl)-1H-indole] |  | > 10000 nM | 1000 to 10000 nM | 101 to 1000 nM
7 | CN1CC(n2ccc3c(F)c(F)ccc32)C1 [Compound 6, 4,5-Difluoro-1-(1-methylazetidin-3-yl)-1H-indole] |  | > 10000 nM | 101 to 1000 nM | 101 to 1000 nM
8 | Cc1cn(C2CCN(C)C2)c2ccc(F)cc12 (stereo not drawn) [Compound 7, 5-Fluoro-3-methyl-1-(1-methylpyrrolidin-3-yl)-1H-indole] |  | > 10000 nM | 1000 to 10000 nM | 1000 to 10000 nM
9 | CN1CCC(n2ccc3c(F)c(F)ccc32)C1 (stereo not drawn) [Compound 8, 4,5-difluoro-1-(1-methylpyrrolidin-3-yl)-1H-indole] |  | 101 to 1000 nM | 101 to 1000 nM | 101 to 1000 nM
10 | Cc1cn(C2CCN(C)CC2)c2ccc(F)cc12 [Compound 9, 5-fluoro-3-methyl-1-(1-methylpiperidin-4-yl)-1H-indole] |  | > 10000 nM | 101 to 1000 nM | 101 to 1000 nM
11 | CN1CCC(n2ccc3c(F)c(F)ccc32)CC1 [Compound 10, 4,5-difluoro-1-(1-methylpiperidin-4-yl)-1H-indole] |  | > 10000 nM | 101 to 1000 nM | 101 to 1000 nM
12 | CC(C)c1cn(C2CCN(C)C2)c2ccc(F)cc12 (stereo not drawn) [Compound 11, 5-fluoro-3-isopropyl-1-(1-methylpyrrolidin-3-yl)-1H-indole] |  | > 10000 nM | 101 to 1000 nM | 1000 to 10000 nM
13 | CN1CCC(n2cc(-c3ccccc3)c3cc(F)ccc32)C1 (stereo not drawn) [Compound 12, 5-fluoro-1-(1-methylpyrrolidin-3-yl)-3-phenyl-1H-indole] |  | > 10000 nM | 10 to 100 nM | 10 to 100 nM
14 | Cc1cn(C2CCN(C)C2)c2ccc(OC3COC3)cc12 (stereo not drawn) [Compound 13, 3-Methyl-1-(1-methylpyrrolidin-3-yl)-5-(oxetan-3-yloxy)-1H-indole] |  | > 10000 nM |  | > 10000 nM
15 | Cc1cn(C2CCNC2)c2ccc(F)cc12 (stereo not drawn) [Compound 14, 5-fluoro-3-methyl-1-(pyrrolidin-3-yl)-1H-indole] |  | 101 to 1000 nM | 101 to 1000 nM | 101 to 1000 nM
16 | Fc1ccc2c(ccn2C2CCNC2)c1F (stereo not drawn) [Compound 15, 4,5-Difluoro-1-(pyrrolidin-3-yl)-1H-indole] |  | 101 to 1000 nM | 101 to 1000 nM | 101 to 1000 nM
17 | CCN1CCC(n2cc(C)c3cc(F)ccc32)C1 (stereo not drawn) [Compound 16, 1-(1-Ethylpyrrolidin-3-yl)-5-fluoro-3-methyl-1H-indole] |  | > 10000 nM |  | 1000 to 10000 nM
18 | CCN1CCC(n2ccc3c(F)c(F)ccc32)C1 (stereo not drawn) [Compound 17, 1-(1-ethylpyrrolidin-3-yl)-4,5-difluoro-1H-indole] |  | > 10000 nM | 1000 to 10000 nM | 1000 to 10000 nM
19 | Cc1cn(C2CCN(C(C)C)C2)c2ccc(F)cc12 (stereo not drawn) [Compound 18, 5-fluoro-1-(1-isopropylpyrrolidin-3-yl)-3-methyl-1H-indole] |  | > 10000 nM |  | 1000 to 10000 nM

Row | Structure (SMILES) | activation of the 5HT2A sensor assay in agonist mode (5HT2A sensor) | EC50 (5-HT2A [1]) | IC50 (5-HT2A [2]) | IC50 (5-HT2A [3])
20 | CC(C)N1CCC(n2ccc3c(F)c(F)ccc32)C1 (stereo not drawn) [Compound 19, 4,5-difluoro-1-(1-isopropylpyrrolidin-3-yl)-1H-indole] |  | > 10000 nM |  | 1000 to 10000 nM
21 | Cc1cn(C2CCN(C3COC3)C2)c2ccc(F)cc12 (stereo not drawn) [Compound 20, 5-fluoro-3-methyl-1-(1-(oxetan-3-yl)pyrrolidin-3-yl)-1H-indole] |  | > 10000 nM |  | > 10000 nM
22 | Fc1ccc2c(ccn2C2CCN(C3COC3)C2)c1F (stereo not drawn) [Compound 21, 4,5-difluoro-1-(1-(oxetan-3-yl)pyrrolidin-3-yl)-1H-indole] |  | > 10000 nM |  | > 10000 nM
23 | COCCN1CCC(n2cc(C)c3cc(F)ccc32)C1 (stereo not drawn) [Compound 22, 5-Fluoro-1-(1-(2-methoxyethyl)pyrrolidin-3-yl)-3-methyl-1H-indole] |  | > 10000 nM |  | 1000 to 10000 nM
24 | COCCN1CCC(n2ccc3c(F)c(F)ccc32)C1 (stereo not drawn) [Compound 23, 4,5-Difluoro-1-(1-(2-methoxyethyl)pyrrolidin-3-yl)-1H-indole] |  | > 10000 nM | 1000 to 10000 nM | 1000 to 10000 nM
25 | Clc1ccc2c(ccn2C2CNC2)c1 [Compound 24, 1-(azetidin-3-yl)-5-chloro-1H-indole] |  | > 10000 nM | 101 to 1000 nM | 1000 to 10000 nM
26 | N#Cc1ccc2c(ccn2C2CNC2)c1 [Compound 25, 1-(azetidin-3-yl)-1H-indole-5-carbonitrile] |  | > 10000 nM | > 10000 nM | > 10000 nM
27 | Fc1cccc2ccn(C3CNC3)c12 [Compound 26, 1-(azetidin-3-yl)-7-fluoro-1H-indole] |  | 1000 to 10000 nM | 1000 to 10000 nM | 1000 to 10000 nM
28 | Fc1ccc2c(ccn2C2CNC2)c1 [Compound 27, 1-(azetidin-3-yl)-5-fluoro-1H-indole] |  | > 10000 nM | 101 to 1000 nM | 101 to 1000 nM
29 | Fc1ccc2ccn(C3CNC3)c2c1 [Compound 28, 1-(azetidin-3-yl)-6-fluoro-1H-indole] |  | > 10000 nM | 101 to 1000 nM | 101 to 1000 nM
30 | COc1ccc2c(ccn2C2CNC2)c1 [Compound 29, 1-(azetidin-3-yl)-5-methoxy-1H-indole] |  | > 10000 nM | > 10000 nM | > 10000 nM
31 | CN1CC(n2ccc3cc(F)ccc32)C1 [Compound 30, 5-fluoro-1-(1-methylazetidin-3-yl)-1H-indole] |  | > 10000 nM | 101 to 1000 nM | 101 to 1000 nM
32 | COc1ccc2c(ccn2C2CN(C)C2)c1 [Compound 31, 5-methoxy-1-(1-methylazetidin-3-yl)-1H-indole] |  | > 10000 nM | > 10000 nM | > 10000 nM
33 | CN1CC(n2ccc3c(F)cccc32)C1 [Compound 32, 4-fluoro-1-(1-methylazetidin-3-yl)-1H-indole] |  | > 10000 nM | 101 to 1000 nM | 101 to 1000 nM
34 | CN1CC(n2ccc3ccc(F)cc32)C1 [Compound 33, 6-fluoro-1-(1-methylazetidin-3-yl)-1H-indole] |  | > 10000 nM | 101 to 1000 nM | 101 to 1000 nM
35 | CN1CC(n2ccc3cccc(F)c32)C1 [Compound 34, 7-fluoro-1-(1-methylazetidin-3-yl)-1H-indole] |  | > 10000 nM | 1000 to 10000 nM | 101 to 1000 nM
36 | Cc1ccc2c(ccn2C2CN(C)C2)c1 [Compound 35, 5-methyl-1-(1-methylazetidin-3-yl)-1H-indole] |  | > 10000 nM | 1000 to 10000 nM | 1000 to 10000 nM
37 | CN1CC(n2ccc3cc(Cl)ccc32)C1 [Compound 36, 5-chloro-1-(1-methylazetidin-3-yl)-1H-indole] |  | > 10000 nM | > 10000 nM | > 10000 nM
38 | CN1CC(n2ccc3cc(C#N)ccc32)C1 [Compound 37, 1-(1-methylazetidin-3-yl)-1H-indole-5-carbonitrile] |  | > 10000 nM | > 10000 nM | > 10000 nM
